{
  "source": "patent US20210315969A1",
  "about": "“GLYCOPROTEINS HAVING LIPID MOBILIZING PROPERTIES AND THERAPEUTIC USES THEREOF” (Aston University, priority 2008, published 2021)",
  "key": {"adipocytes": {"test_system": "adipocytes", "assay": "Expression of phospho HSL / HSL in adipocytes incubated 3 h with ZAG or isoprenaline", "type": "cell-based, mice"}, "murine myotubes": {"test_system": "murine myotubes", "assay": "Protein degradation and synthesis in myotubes subjected to high glucose", "type": "cell-based", "procedure": "FIGS. 18A and 18B is a graphical diagram showing phenylalanine release (FIG. 18A) and protein synthesis (FIG. 18B) in C2Cl2 myotubes treated with and without ZAG for 4 h in the presence of various concentrations of glucose. Statistically significant c, P<0.001 from control; f, P<0.001 from glucose alone.\nStatistically significant b, P<0.01 and c, P<0.001 from control; e, P<0.05 and f, P<0.001 from glucose alone.\nStatistically significant b, P<0.01 and c, P<0.001 from control; e, P<0.05 and f, P<:0.001 from glucose alone; I, P<0.001 from glucose+SR.\nThis utilizes murine myotubes subjected. to high concentrations of glucose (10 or 25 mM)."}, "epididymal adipocytes": {"test_system": "epididymal adipocytes", "assay": "Lipolytic assay (glycerol release) in isolated mouse adipocytes", "type": "cell-based, mice", "conditions": "any adipocyte group", "procedure": "Cell Culture and Purification of ZAG—Single-cell suspensions of white adipocytes were prepared from minced adipose deposits by incubation at 37° C. for […] in Krebs-Ringer biocarbonate buffer containing 1.5 ingml^−1 collagenase, and 4% bovine serum albumin under an atmosphere of 95% oxygen:5% CO2 as previously described. For time-course studies adipocytes were suspended in DMEM containing 10% fetal calf serum at a concentration of 10^5 cells ml^−1 and maintained under an atmosphere of 10% CO2 in air at 37° C. Human 293 cells transfected with a plasmid containing human ZAG were seeded at a concentration of 10^5 cells ml^−1 in FreeStyle medium and maintained under an atmosphere of 5% CO2 in air at 37° C. Maximal protein levels (16 μgml^−1) were obtained after 14 days of culture. […]\nLipolytic Assay—Samples to be assayed were incubated with 10^5 to 2×10^5 adipocytes for 2 h in 1 ml Krebs-Ringer bicarbonate buffer, pH 7.2. The concentration of glycerol released was determined enzymatically by the method of Wieland (Wieland, O. Glycerol UV method. In Methods of Enzymatic Analysis (ed. Bergmeyer, H. U.) (Academic Press, London, UK, pp 1404-1409, 1974)). Control samples containing adipocytes alone were analysed to determine the spontaneous glycerol release. Activity was expressed as nmol glycerol released/10^5 adipocytes/2 h."}},
  "data": [
    {"smiles": "COc1cccc(-c2cc(=O)c3ccccc3o2)c1N", "note": "[PD98059]", "values": [
      {"measurement": "effect on ZAG-induced expression of HSL in ep adipocytes", "setting": "adipocytes; PD98059 10 μM, adipocytes incubated with ZAG for 3 h", "result": "attenuated the increase in expression of HSL"}
    ]},
    {"smiles": "CCc1ccccc1OC[C@@H](O)CN[C@H]1CCCc2ccccc21", "note": "[SR59230A]", "values": [
      {"measurement": "combination of ZAG and SR59230A on glucose induced protein degradation", "setting": "murine myotubes; 10 and 25 mM glucose", "result": "additive rather than antagonistic"},
      {"measurement": "protein degradation induced by 10 and 25 mM glucose", "setting": "murine myotubes; myotubes", "result": "attenuated"},
      {"measurement": "protein synthesis", "setting": "murine myotubes; with 10 mM glucose", "result": "causes an increase in the depression of protein synthesis"}
    ]},
    {"smiles": "CC(C)NCC(O)c1ccc(O)c(O)c1", "note": "(stereo not drawn) [isoprenaline]", "values": [
      {"measurement": "expression of phospho HSL in adipocytes", "setting": "adipocytes; 3 h, isoprenaline 10 μM or ZAG 0.46 μM", "result": "not"},
      {"measurement": "extent of stimulation of lipolysis, isoprenaline versus ZAG", "setting": "epididymal adipocytes", "result": "no significant difference"}
    ]}
  ]
}
